Source: patent publication US20060035892A1, “Nitrosated imidazopyridines” (Atlanta Pharma AG, priority 2002, published 2006)

system: acid secretion stimulated by pentagastrin of the perfused rat stomach; assay: Secretion-inhibiting action on the perfused rat stomach (pentagastrin-stimulated acid secretion in vivo); conditions: anesthetized female CD rats, pentagastrin 1 μg/kg i.v. stimulation, dose 1 μmol/kg i.d.
Description: Testing of the Secretion-Inhibiting Action on the Perfused Rat Stomach
In Table A below, the influence of the compounds according to the invention after […] administration is shown on the acid secretion stimulated by pentagastrin of the perfused rat stomach in vivo.
The abdomen of anesthetized rats (CD rats, female, 200-250 g; 1.5 g/kg i.m. urethane) was opened after tracheotomy by means of a median upper abdominal incision and a PVC catheter was fixed transorally in the esophagus and a further catheter via the pylonus such that the ends of the tubing just projected into the gastric lumen. The catheter leading from the pylorus led outwards through a side opening in the right abdominal wall.
After thorough rinsing (about 50-100 ml), warm physiological NaCl solution at 37° C. was continuously passed through the stomach (0.5 ml/min, pH 6.8-6.9; Braun-Unita I). The pH (pH meter 632, glass electrode EA 147; φ=5 mm, Metrohm), and, by titration with a freshly prepared 0.01N NaOH solution to pH 7 (Dosimat 665 Metrohm), the secreted HCl were determined in the effluent in each case collected at an interval of 15 minutes.
The gastric secretion was stimulated by continuous perfusion of 1 μg/kg (=1.65 ml/h) of i.v. pentagastrin (left femoral vein) about 30 min after the end of the operation (i.e. after determination of 2 preliminary fractions). The substances to be tested were administered Intraduodenally in 2,5 ml/kg of liquid volume 60 min after the start of the pentagastrin continuous infusion.
The body temperature of the animals was kept at a constant 37.8-38° C. by infrared irradiation and heat pads (automatic, stepless control by means of rectal temperature sensors).

SMILES | Inhibition of acid secretion
COCCO[C@@H]1c2ccn3c(C)c(C)nc3c2N[C@H](c2ccccc2)[C@H]1OC(=O)CCCCO[N+](=O)[O-] [Example 1] | 100%
COCCO[C@@H]1c2ccn3c(C)c(C)nc3c2N[C@H](c2ccccc2)[C@H]1OC(=O)CCCO[N+](=O)[O-] [Example 2] | 100%
COCCO[C@@H]1c2ccn3c(C)c(C)nc3c2O[C@H](c2ccccc2)[C@@H]1OC(=O)CCCCO[N+](=O)[O-] [Example 3, (7R,8R,9R)-2,3-Dimethyl-7-(2-methoxyethoxy)-9-phenyl-8-(5-nitro-oxy-valeryloxy)-7H-8,9-dihydro-pyrano[2,3-c]imdazo[1,2-a]pyridine] | 100%
CCC(CCCOC(=O)O[C@@H]1[C@@H](c2ccccc2)Nc2c(ccn3c(C)c(C)nc23)[C@H]1OCCOC)O[N+](=O)[O-] (stereo partly shown) [Example 4] | 100%
